The test system of data set [1] is E. coli^WT (ATCC 25922). Further details: method as in PMID 29032026. To be noted: cited from earlier work.
The subject of data set [2] is panel of 12 E. coli isolates. Further details: method as in PMID 29032026. The conditions noted are these: abbreviated panel of E. coli strains; cited from earlier work.
For data set [3], the system named is E. coli^WT (ATCC 25922). In words: Mouse septicemia model. Type of data set: in vivo, CD-1 mice. To be noted: 96 h.
A short description of another data set: in vivo. The conditions noted are these: CD-1, mouse, iv, 3 mg/kg.
Data set [4] deals with panel of 12 A. baumannii isolates. In words: Susceptibility testing, 12 A. baumannii isolates. It counts as cell-based, Acinetobacter baumannii. The conditions noted are these: 12 strains.
Data set [5] can be described thus: Mouse plasma protein binding, equilibrium dialysis.
The subject of data set [6] is Acinetobacter baumannii ATCC BAA-747. In words: MIC, wild-type A. baumannii. The conditions noted are these: Acinetobacter baumannii, ATCCBAA747; A. baumannii ATCC BAA-747; read-out: MIC A. bau^WT. It counts as cell-based.
The test system of a further data set is E. coli SKM18. Put plainly: microbe, parasite or virus in culture. Type of data set: cell-based, Escherichia coli.
The subject of another data set is E. coli ELZ4251. In words: MIC, clinical isolate E. coli ELZ4251. It counts as cell-based. The conditions noted are these: Escherichia coli, read-out: MIC E. coli^R2.
The test system of data set [7] is panel of 12 E. coli isolates. Put plainly: Susceptibility testing, 12 E. coli isolates. Type of data set: cell-based, Escherichia coli. To be noted: 12 strains.
The next data set relates to E. coli ATCC 25922. Put plainly: MIC, wild-type E. coli ATCC 25922. It counts as cell-based, Escherichia coli. The conditions noted are these: Escherichia coli, ATCC25922; E. coli ATCC 25922; read-out: MIC E. coli^WT.
Data set [8] deals with Klebsiella pneumoniae ATCC 35657. Put plainly: MIC, wild-type K. pneumoniae. Type of data set: cell-based. The conditions noted are these: Klebsiella pneumoniae, ATCC35657; K. pneumoniae ATCC 35657; read-out: MIC K. pneu^WT.
Another data set addresses human topoisomerase II (Homo sapiens, UniProt P11388). In words: Human topoisomerase II decatenation assay. Type of data set: biochemical. To be noted: Supplemental Table 1; read-out: Human Topo II IC50.
In the next data set the test system is A. baumannii MMX2240. In words: MIC, fluoroquinolone resistant A. baumannii. Type of data set: cell-based, Acinetobacter baumannii. The conditions noted are these: Acinetobacter baumannii.
In the next data set the target is E. coli DNA gyrase (Escherichia coli, UniProt P0AES4+P0AES6). In words: biochemical. To be noted: E. coli DNA gyrase IC50.
Data set [9] in a line: Pharmacokinetics in CD-1 mice. To be noted: CD-1, mouse, plasma.
In the next data set the test system is A. baumannii^WT. In words: Time-kill kinetics, A. baumannii.
For the next data set, the system named is E. coli^WT. Put plainly: Time-kill kinetics, E. coli.
The subject of a further data set is E. coli 1609. In words: MIC, wild-type E. coli 1609. It counts as cell-based. The conditions noted are these: Escherichia coli, read-out: MIC E. coli^WT2.
The next data set deals with E. coli SKM11. It counts as cell-based, Escherichia coli.
Data set [10] deals with E. coli DNA gyrase^SD-LY (GyrA S83L, D87Y) (Escherichia coli, UniProt P0AES4+P0AES6, D87Y/S83L). Type of data set: biochemical. To be noted: IC50 ratio.

Each structure is given as a SMILES string. ≈ marks a conversion by molar mass, not a printed value. Counter-ions that a name gives are not always drawn. Marks after values point to notes of the source that are not given here. A value given as a limit tells only on which side of the number the result lay.

Chain of human topoisomerase II (P11388 whole entry): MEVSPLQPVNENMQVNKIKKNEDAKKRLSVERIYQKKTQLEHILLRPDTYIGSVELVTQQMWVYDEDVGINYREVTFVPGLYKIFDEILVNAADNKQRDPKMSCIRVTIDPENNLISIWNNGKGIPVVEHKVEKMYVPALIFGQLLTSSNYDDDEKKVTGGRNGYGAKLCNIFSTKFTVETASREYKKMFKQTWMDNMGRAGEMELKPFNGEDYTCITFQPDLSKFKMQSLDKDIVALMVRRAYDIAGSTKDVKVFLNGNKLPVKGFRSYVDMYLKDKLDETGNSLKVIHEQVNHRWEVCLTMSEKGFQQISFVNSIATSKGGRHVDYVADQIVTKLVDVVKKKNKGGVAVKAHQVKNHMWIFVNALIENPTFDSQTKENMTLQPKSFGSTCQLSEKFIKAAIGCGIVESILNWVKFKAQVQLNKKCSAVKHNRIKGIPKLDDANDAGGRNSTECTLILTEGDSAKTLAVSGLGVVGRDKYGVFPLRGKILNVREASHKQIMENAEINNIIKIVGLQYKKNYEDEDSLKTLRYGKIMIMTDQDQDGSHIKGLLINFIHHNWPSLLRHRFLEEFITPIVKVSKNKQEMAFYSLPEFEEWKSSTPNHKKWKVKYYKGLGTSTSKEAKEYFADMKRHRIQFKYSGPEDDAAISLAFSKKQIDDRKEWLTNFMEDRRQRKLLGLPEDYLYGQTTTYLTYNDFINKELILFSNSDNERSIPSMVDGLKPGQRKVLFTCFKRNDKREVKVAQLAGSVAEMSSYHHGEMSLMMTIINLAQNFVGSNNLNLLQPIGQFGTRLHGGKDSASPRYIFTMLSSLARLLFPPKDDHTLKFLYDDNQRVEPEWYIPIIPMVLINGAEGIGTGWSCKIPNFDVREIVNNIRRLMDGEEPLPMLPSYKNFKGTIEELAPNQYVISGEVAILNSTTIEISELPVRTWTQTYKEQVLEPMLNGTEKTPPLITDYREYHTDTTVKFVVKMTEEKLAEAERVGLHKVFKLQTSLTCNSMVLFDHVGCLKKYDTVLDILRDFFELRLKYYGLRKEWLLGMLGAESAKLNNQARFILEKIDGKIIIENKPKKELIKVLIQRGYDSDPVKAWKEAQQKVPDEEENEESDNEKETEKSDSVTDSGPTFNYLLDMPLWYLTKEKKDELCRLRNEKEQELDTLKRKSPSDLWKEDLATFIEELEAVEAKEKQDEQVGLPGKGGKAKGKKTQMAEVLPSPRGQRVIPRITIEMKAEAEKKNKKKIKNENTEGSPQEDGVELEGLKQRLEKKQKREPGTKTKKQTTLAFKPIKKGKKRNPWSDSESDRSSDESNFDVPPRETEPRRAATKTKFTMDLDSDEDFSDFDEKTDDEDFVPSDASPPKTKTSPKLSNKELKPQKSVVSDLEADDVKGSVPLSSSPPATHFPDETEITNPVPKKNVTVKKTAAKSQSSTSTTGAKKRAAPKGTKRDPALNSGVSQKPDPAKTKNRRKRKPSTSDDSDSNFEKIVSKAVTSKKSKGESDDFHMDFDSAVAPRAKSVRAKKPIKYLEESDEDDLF

Regarding `CCc1c(-c2ccc(N3C[C@@H]4[C@@H](N)[C@@H]4C3)cc2)[nH]c(=O)c(C(=O)O)c1O` [Compound 1b], the “efficacy in a murine septicemia model” value in the data set on E. coli^WT (ATCC 25922) [1] is on record as “demonstrated efficacy”. Moreover, in data set [2], the “MIC90 E. coli” value is 8 µg/mL (≈ 22.5 µM).
With `COc1c(N2C[C@@H]3CCCN[C@@H]3C2)c(F)cc2c(=O)c(C(=O)O)cn(C3CC3)c12` [moxifloxacin, reference compound], in the data set with E. coli^WT (ATCC 25922) [3] (neutropenic mice, E. coli^WT 100 × LD50, 3 mg/kg at 1 and 5 h postinfection (b.i.d.)), the survival was 100 ^n %. Moreover, in the data set “in vivo”, the area under the curve AUC(0-t) – broadly, exposure summed from dosing to a finite time, without extrapolation to infinity – at 24 h was 640 ng·h/mL.
`CCC(C)NCc1cc2cc3c(cc2n1C)OCCc1c-3[nH]c(=O)c(C(=O)O)c1O.Cl` (centres unmarked) [Compound 6o, 10-((sec-Butylamino)methyl)-4-hydroxy-9-methyl-2-oxo-2,5,6,9-tetrahydro-1H-pyrido[2′,3′:4,5]oxepino[3,2-f]indole-3-carboxylic Acid Hydrochloride]: in data set [4] (Mueller Hinton II broth), the “A. baumannii MIC90” value stood at 8 µg/mL. For the same molecule, the MIC90 (in general, an inhibitory concentration at the 90% level, which refers to growth in some studies and to a panel of isolates in others) was in the range of 8 to 16 µg/mL in data set [4] (Acinetobacter baumannii, Mueller Hinton II broth, read-out: A. baumannii MIC90) and 0.5 to 1 µg/mL in data set [7] (Escherichia coli, Mueller Hinton II broth, read-out: E. coli MIC90). Besides, the MIC50 – broadly, the lowest concentration that inhibits either 50% of growth or 50% of the strains tested, depending on the study – came to 2 µg/mL in data set [4] (Acinetobacter baumannii) and 1 µg/mL in data set [7] (Escherichia coli). In [5], the fraction unbound (usually free concentration divided by total concentration) at 1 μM is 0.23. The MIC in [6] is 1.6 µg/mL; with E. coli SKM18 (Escherichia coli, SKM18, read-out: MIC E. coli^R1, E. coli SKM18), 0.78 µg/mL; with E. coli ELZ4251 it was 2 µg/mL; in data set [7] (Escherichia coli, read-out: E. coli MIC range), 0.12 to 1 µg/mL; with E. coli ATCC 25922, 0.78 µg/mL; in data set [8], 1 µg/mL. In addition, in the data set on A. baumannii MMX2240, the MIC is 0.78 µg/mL. Besides, in the data set with E. coli^WT (ATCC 25922) [3] (Mus musculus, iv, read-out: survival), the responders at 20 mg/kg was 100%. In data set [7] (Mueller Hinton II broth), the “E. coli MIC90” value was 1 µg/mL. Further, the results for the IC50 at human topoisomerase II and against E. coli DNA gyrase were greater than 100 µM and 110 nM, respectively. In [9] (iv, 10 mg/kg, pH 8), this molecule yielded an AUC(0-t) of 3440 ng·h/mL. The clearance (commonly a measure of how efficiently the substance is removed, as volume per time) in [9] (iv, 10 mg/kg, pH 8) is 48 mL/min/kg. Besides, the half-life – broadly, how long it takes for the measured level to halve – in data set [9] (iv, 10 mg/kg, pH 8) is 126 min. Moreover, in data set [9] (po), the bioavailability (usually dose-corrected exposure relative to a reference, in per cent) worked out at 41%.
Take `CCc1c(-c2ccc3c(c2)cc(CN2CCC2)n3C)[nH]c(=O)c(C(=O)O)c1O` [Compound 2m, 6-(2-(Azetidin-1-ylmethyl)-1-methyl-1H-indol-5-yl)-5-ethyl-4-hydroxy-2-oxo-1,2-dihydropyridine-3-carboxylic Acid Hydrochloride]: the “mode of bacterial inhibition (time–kill kinetics)” value in the data set on A. baumannii^WT (A. baumannii^WT, several concentrations) was “concentration-dependent bactericidal activity”; in the data set with E. coli^WT (E. coli^WT, several concentrations) it was “concentration-dependent bactericidal activity”. In addition, the “reduction in the number of CFUs” value is recorded as roughly 2 log10 units with A. baumannii^WT (above 2-fold of the MIC, within ∼2 h) and “more than 3 log10 units” with E. coli^WT (concentrations above the MIC, within ∼2 h).
For the molecule `O=C(O)c1cn(C2CC2)c2cc(N3CCNCC3)c(F)cc2c1=O` [ciprofloxacin], the figures for the MIC in the data set with E. coli 1609 and in the data set with E. coli ATCC 25922 were 0.024 µg/mL (≈ 0.0724 µM) and 0.012 µg/mL (≈ 0.0362 µM), respectively. The “MIC E. coli^R1” value in the data set with E. coli SKM18 (E. coli SKM18) was greater than 250 µg/mL. In addition, the “increase in MIC against E. coli^R1” value in the data set with E. coli SKM18 (additional Topo IV mutations, vs E. coli^R3) is given as roughly 250 fold. In addition, the “increase in MIC against E. coli^R3” value in the data set on E. coli SKM11 was 32 fold. Also, the “reduction in activity against DNA gyrase^SD-LY compared to DNA gyrase^WT” value in data set [10] is “greater than 13 fold”.

These data come from PMC5991783, “Discovery and Optimization of Indolyl-Containing 4-Hydroxy-2-Pyridone Type II DNA Topoisomerase Inhibitors Active against Multidrug Resistant Gram-negative Bacteria” (Journal of Medicinal Chemistry, 2018).
